Values quoted from earlier work in patent US20240010634A1, “PYRIMIDINYL SULFONAMIDES AS INHIBITORS OF ACK1/TNK2 TYROSINE KINASE” (H. LEE MOFFITT CANCER CENTER AND RESEARCH INSTITUTE, INC., priority 2020, published 2024).

Tests used:
[1] = system: cell line which is dependent upon ACK1; conditions: read-out: IC50, growth of a cell line dependent upon ACK1; cited from earlier work
ACK1 = ACK1 (Homo sapiens (Human), UniProt Q07912); conditions: cited from earlier work
ACK1 autophosphorylation = conditions: heregulin-stimulated LNCaP cells; cited from earlier work
[2] = system: AR phosphorylation of Tyr-267; conditions: heregulin-stimulated LNCaP cells; cited from earlier work

Sequence of ACK1 (Q07912 whole entry): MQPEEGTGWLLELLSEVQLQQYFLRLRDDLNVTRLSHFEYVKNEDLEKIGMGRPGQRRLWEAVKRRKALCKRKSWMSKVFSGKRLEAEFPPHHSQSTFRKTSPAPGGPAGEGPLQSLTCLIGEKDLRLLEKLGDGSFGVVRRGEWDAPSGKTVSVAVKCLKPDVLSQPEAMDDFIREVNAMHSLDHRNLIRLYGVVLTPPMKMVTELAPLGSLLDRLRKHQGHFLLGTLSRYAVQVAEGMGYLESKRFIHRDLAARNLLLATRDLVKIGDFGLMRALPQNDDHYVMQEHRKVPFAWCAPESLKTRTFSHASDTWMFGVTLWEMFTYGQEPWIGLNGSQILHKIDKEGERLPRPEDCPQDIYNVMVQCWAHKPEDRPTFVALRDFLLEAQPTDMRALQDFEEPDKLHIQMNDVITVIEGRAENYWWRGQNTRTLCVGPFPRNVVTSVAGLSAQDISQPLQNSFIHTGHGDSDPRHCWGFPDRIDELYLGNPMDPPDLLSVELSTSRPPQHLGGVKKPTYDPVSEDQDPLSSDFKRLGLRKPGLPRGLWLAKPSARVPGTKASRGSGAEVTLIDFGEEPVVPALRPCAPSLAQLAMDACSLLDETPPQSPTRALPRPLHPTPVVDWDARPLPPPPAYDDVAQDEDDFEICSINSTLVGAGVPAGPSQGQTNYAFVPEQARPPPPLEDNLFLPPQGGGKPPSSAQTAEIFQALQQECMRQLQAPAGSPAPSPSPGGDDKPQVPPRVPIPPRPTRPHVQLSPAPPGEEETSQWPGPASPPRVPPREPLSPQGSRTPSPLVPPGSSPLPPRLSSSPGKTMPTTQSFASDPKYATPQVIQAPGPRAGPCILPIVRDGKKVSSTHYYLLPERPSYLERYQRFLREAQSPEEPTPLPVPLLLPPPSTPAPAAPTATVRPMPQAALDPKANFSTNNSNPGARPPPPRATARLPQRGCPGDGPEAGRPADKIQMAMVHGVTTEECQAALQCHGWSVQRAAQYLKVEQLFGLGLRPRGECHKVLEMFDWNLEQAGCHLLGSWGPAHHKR

| SMILES | IC50 [1] | Ki (ACK1) | IC50 (ACK1 autophosphorylation) | IC50 [2] |
| --- | --- | --- | --- | --- |
| CN(C)CCOc1ccc(-c2oc3ncnc(NCC4SCCS4)c3c2-c2ccccc2)cc1 [Compound 1c] | 5 nM | 0.3 nM |  |  |
| Cc1nc(Nc2ncc(C(=O)Nc3c(C)cccc3Cl)s2)cc(N2CCN(CCO)CC2)n1 [Dasatinib] |  |  | < 5 nM | < 5 nM |
